# Measurements taken from patent US9925263B2, “Liquid pharmaceutical formulations for injection comprising procaine and uses thereof” (EAGLE BIOLOGICS, INC., priority 2013, dated 2018).
# Tests used:
# [1] = tested on: biosimilar AVASTIN®; test: Viscosity of aqueous solutions of biosimilar AVASTIN® with viscosity-lowering agents; format: physicochemical
# Protocol: (unless otherwise indicated).
# The protein was formulated to contain either 0.25 M phosphate buffer or 0.25 M CSAL.
# Subsequently, the appropriate amount of viscosity-lowering agent was added to result in a final viscosity-lowering agent concentration of 0.15-0.35 M upon reconstitution.
# The viscosity-lowering agent(s) were added in an amount sufficient to give concentration upon reconstitution as specified below. In cases of combinations of agents, the concentration of each component is 0.15 M. The protein solutions were then freeze-dried.
# [2] = tested on: biosimilar RITUXAN®; test: Viscosity of aqueous solutions of biosimilar RITUXAN® with viscosity-lowering agents; details: 25° C.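 Note: absolute viscosity of aqueous antibody solutions determined by microfluidic viscometry (mVROC chip, 50 micron channel) at several flow rates after 5 min equilibration, mean of at least three readings.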
# Protocol: All viscosities of well-mixed aqueous mAb solutions were measured using either a mVROC microfluidic viscometer (RheoSense) or a DV2T cone and plate viscometer (Brookfield; “C & P”) after a 5 minute equilibration at 25° C. […] The mVROC viscometer was equipped with an “A” or “B” chip, each manufactured with a 50 micron channel. Typically, 0.10 mL of protein solution was back-loaded into a gastight microlab instrument syringe (Hamilton; 100 μL), affixed to the chip, and measured at multiple flow rates, approximately 20%, 40%, and 60% of the maximum pressure for each chip. […] An average absolute viscosity and standard deviation was then calculated from at least these three measurements. The C & P viscometer was equipped with a CPE40 or CPE52 spindle (cone angle of 0.8° and 3.0°, respectively) and 0.50 mL samples were measured at multiple shear rates between 2 and 400 s^−1. […] An extrapolated zero-shear viscosity was then determined from a plot of dynamic viscosity versus shear rate for the samples measured on a DV2T cone and plate viscometer. The extrapolated zero-shear viscosities reported are the average and standard deviation of at least three measurements.
# Viscosities were measured using a RheoSense mVROC microfluidic viscometer equipped with an “A” or “B” chip.
# [3] = tested on: biosimilar ERBITUX®; test: Viscosity of aqueous solutions of biosimilar ERBITUX® with viscosity-lowering agents
# Protocol: All viscosities of well-mixed aqueous mAb solutions were measured using either a mVROC microfluidic viscometer (RheoSense) or a DV2T cone and plate viscometer (Brookfield; “C & P”) after a 5 minute equilibration at 25° C. (unless otherwise indicated). The mVROC viscometer was equipped with an “A” or “B” chip, each manufactured with a 50 micron channel. Typically, 0.10 mL of protein solution was back-loaded into a gastight microlab instrument syringe (Hamilton; 100 μL), affixed to the chip, and measured at multiple flow rates, approximately 20%, 40%, and 60% of the maximum pressure for each chip. […] An average absolute viscosity and standard deviation was then calculated from at least these three measurements. The C & P viscometer was equipped with a CPE40 or CPE52 spindle (cone angle of 0.8° and 3.0°, respectively) and 0.50 mL samples were measured at multiple shear rates between 2 and 400 s^−1. […] An extrapolated zero-shear viscosity was then determined from a plot of dynamic viscosity versus shear rate for the samples measured on a DV2T cone and plate viscometer. The extrapolated zero-shear viscosities reported are the average and standard deviation of at least three measurements.
# First, Polysorbate 80 was removed using DETERGENT-OUT® TWEEN® Medi Columns (G-Biosciences). […] The collected protein solution was freeze-dried. The dried protein cakes, containing protein and buffer salts or agent, were reconstituted to a final volume of 0.15-1.3 mL. […] Reported protein concentrations represent the range of all protein samples included in each Table or Figure. Specifically, reported values are the median plus or minus half the range. Extrapolated zero-shear using an experimentally determined extinction coefficient of 1.4 L/g·cm and viscosities reported were measured on a DV2T cone and plate viscometer.
# The final concentration of CSAL upon reconstitution in an aqueous CSAL solution ranged from 0.25 M to 0.50 M.
# Specifically, 20 mM solutions of the viscosity-lowering agents of interest were used for buffer exchange, and the lyophilized cakes were reconstituted to 0.25 M of each viscosity-lowering agent. […] The sample was first aliquoted. […] The dried protein cakes, containing protein and viscosity-lowering agent (and a negligible amount of buffer salts) were reconstituted to a final volume of approximately 0.10 mL and viscosity-lowering agent concentration as previously described.
# First, Polysorbate was removed from the commercially obtained mAb solutions.
# Specifically, 20 mM solutions of the salts of interest were used for buffer exchange, and the lyophilized cakes were reconstituted to contain 0.25 M of each agent. Viscosities were measured using either a RheoSense mVROC microfluidic viscometer equipped with an “A” or “B” chip or a DV2T cone and plate viscometer.
# Subsequently, the aqueous drug product was purified, buffer exchanged, concentrated, dried, reconstituted, and analyzed as described in the same manner. Viscosities reported were measured on a RheoSense mVROC microfluidic viscometer.
# [4] = 225 mg/mL mAb, agent […], 25° C.
# [5] = 228 ± 5 mg/mL mAb, agent 0.25 M, 25° C., pH 7.0
# [6] = 200 ± 5 mg/mL mAb, pH 7.0, 25° C., [Salt] 0.25 M of anion, C & P viscometer
# [7] = 200 ± 5 mg/mL mAb, pH 7.0, 25° C., [Salt] 0.35 M of anion, C & P viscometer
molecule,measurement,setting,value
Cc1ncc(CO)c(CO)c1O [Pyridoxine],Viscosity,"[1]; 227 mg/mL mAb, agent […], 25° C.",107 ± 0 cP
ClC=CC[N+]12CN3CN(CN(C3)C1)C2.[Cl-] [Quaternium 15],Viscosity,"[2]; 221 mg/mL mAb, […] agent",135 ± 5 cP
Cc1cc2nc3c(=O)[nH]c(=O)nc-3n(C[C@H](O)[C@H](O)[C@H](O)COP(=O)([O-])O)c2cc1C.[Na+] [Riboflavin-5-phosphate],Viscosity,"[3]; 237 mg/mL mAb, 0.10M agent, 25° C.",492 ± 9 cP
same,Viscosity,[1]; [4],131 ± 4 cP
OC[C@H]1O[C@H](O[C@]2(CCl)O[C@H](CCl)[C@@H](O)[C@@H]2O)[C@H](O)[C@@H](O)[C@H]1Cl [Sucralose],Viscosity,"[2]; 234 mg/mL mAb, […] agent",111 ± 8 cP
same,Viscosity,"[1]; 230 mg/mL mAb, agent […], 25° C.",147 ± 4 cP
"CC(=O)[N-]S(=O)(=O)c1ccc(N)cc1.[Na+] [Sulfacetamide-Na, reference compound]",Viscosity,"[1]; 214 mg/mL mAb, agent […], 25° C.",113 ± 1 cP
"CNS(=O)(=O)Cc1ccc2[nH]cc(CCN(C)C)c2c1 [Sumatriptan Succinate, reference compound]",Viscosity,"[1]; 212 mg/mL mAb, agent 0.25M, 25° C.",93.2 ± 2.7 cP
O=P1([O-])OP(=O)([O-])OP(=O)([O-])O1.[Na+].[Na+].[Na+] [Trimetaphosphate-3Na],Viscosity,"[2]; 199 mg/mL mAb, […] agent",126 ± 3.3 cP
same,Viscosity,"[1]; 211 mg/mL mAb, agent […], 25° C.",121 ± 6 cP
CSA 1-(3-aminopropyl)-2-methyl-1H-imidazole [CSAAPMI-2HCl],Viscosity,"[1]; 210 mg/mL mAb, 0.25 M agent, 25° C., pH 7.0",40.9 ± 0.5 cP
same,Viscosity,[1]; [5],71.8 ± 3.2 cP
CSA betaine,Viscosity,[1]; [6],66.0 ± 0.7 cP
CSA carnitine,Viscosity,[1]; [6],72.4 ± 1.7 cP
CSA dimethylpiperazine,Viscosity,[1]; [6],47.4 ± 1.3 cP
same,Viscosity,[1]; [7],51.7 ± 0.9 cP
CSA-1-o-tolybiguanide,Viscosity,"[2]; 190 mg/mL mAb, […] agent",40.4 ± 1.9 cP
same,Viscosity,"[1]; 228 mg/mL mAb, agent […], 25° C.",121 ± 1 cP
CSA-Na-Creatinine,Viscosity,"[2]; 190 mg/mL mAb, 0.3M agent",33.3 ± 1.1 cP
same,Viscosity,"[1]; 202 mg/mL mAb, agent […], 25° C.",38.4 ± 0.9 cP
CSA-Na-aminocyclohexane carboxylic acid,Viscosity,"[2]; 191 mg/mL mAb, […] agent",61.3 ± 2.5 cP
same,Viscosity,[1]; [4],69.2 ± 3.7 cP
CSA-Tris,Viscosity,"[2]; 191 mg/mL mAb, […] agent",59.1 ± 0.7 cP
same,Viscosity,"[1]; 197 mg/mL mAb, agent […], 25° C.",50 ± 1 cP
same,Viscosity,"[1]; 206 mg/mL mAb, agent […], 25° C.",64.4 ± 1.4 cP
CSAthiamine-2NaCl,Viscosity,"[1]; 228 ± 5 mg/mL mAb, agent […], 25° C., pH 7.0",83.7 ± 2.2 cP
same,Viscosity reduction,"[1]; ~230 mg/mL mAb, vs PB, Table 12",approximately 5 fold
Chlorotheophylline arginine,Viscosity,[1]; [6],104.5 ± 6.5 cP
Ethandisulfonate diarginine,Viscosity,[1]; [6],105 ± 4 cP
same,Viscosity,"[1]; 200 ± 5 mg/mL mAb, pH 7.0, 25° C., [Salt] […] of anion, C & P viscometer",77.1 ± 0.3 cP
Sulfosalicylic acid dilysine,Viscosity,[1]; [5],73.4 ± 0.4 cP
Toluenesulfonic acid arginine,Viscosity,[1]; [6],159 ± 5 cP
Toluenesulfonic acid lysine,Viscosity,[1]; [6],118 ± 1 cP
diCSA cadaverine,Viscosity,[1]; [6],85.5 ± 5.2 cP
same,Viscosity,[1]; [7],65.6 ± 1.6 cP
naphthalenesulfonic acid arginine [NSAA],Viscosity,"[3]; 222 ± 5 mg/mL mAb, pH 7.0, 0.25M agent, 25° C.",69.4 ± 0.6 cP
same,Viscosity,"[3]; 225 ± 5 mg/mL mAb, pH 7.0, 0.25M agent, 20° C.",103 ± 0 cP
same,Viscosity,"[3]; 225 ± 5 mg/mL mAb, pH 7.0, 0.25M agent, 25° C.",69.4 ± 0.6 cP
same,Viscosity,"[3]; 225 ± 5 mg/mL mAb, pH 7.0, 0.25M agent, 30° C.",60.9 ± 4.3 cP
same,Fold Reduction,"[3]; vs phosphate buffer, 222 ± 5 mg/mL mAb, pH 7.0, 0.25M agent, 25° C.",16.3 fold
